Measured values as given in US8871681B2, “Herbicidal compositions comprising 4-amino-3-chloro-5-fluoro-6-(4-chloro-2-fluoro-3-methoxyphenyl) pyridine-2-carboxylic acid or a derivative thereof and certain sulfonylureas” (Dow AgroSciences LLC, priority 2012, dated 2014).

Columns and labels:
[1] = tested on: ECHOR (Echinochloa oryzoides, early watergrass); assay: In-water applied weed control, transplanted paddy rice, greenhouse (Example II); assay type: in vivo, Echinochloa oryzoides (Ard.) Fritsch
Procedure: (§1) Weed seeds or nutlets of the desired test plant species were planted in puddled soil (mud) prepared by mixing a shredded, non-sterilized mineral soil (50.5 percent silt, 25.5 percent clay, and 24 percent sand, with a pH of about 7.6 and an organic matter content of about 2.9 percent) and water at a 1:1 volumetric ratio. The prepared mud was dispensed in 365 mL aliquots into 16-ounce (oz.) non-perforated plastic pots with a surface area of 86.59 square centimeters (cm^2) leaving a headspace of 3 centimeters (cm) in each pot. Rice seeds were planted in Sun Gro MetroMix® 306 planting mixture, which typically has a pH of 6.0 to 6.8 and an organic matter content of about 30 percent, in plastic plug trays. Seedlings at the second or third leaf stage of growth were transplanted into 860 mL of mud contained in 32-oz. non-perforated plastic pots with a surface area of 86.59 cm^2 4 days prior to herbicide application. The paddy was created by filling the headspace of the pots with 2.5 to 3 cm of water. When required to ensure good germination and healthy plants, a fungicide treatment and/or other chemical or physical treatment was applied. The plants were grown for 4-22 days in a greenhouse with an approximate 14 h photoperiod which was maintained at about 29′C during the day and 26° C. during the night. Nutrients were added as Osmocote® (19:6:12, N:P:K+minor nutrients) at 2 g per 16-oz. pot and 4 g per 32-oz. pot. Water was added on a regular basis to maintain the paddy flood, and supplemental lighting was provided with overhead metal halide 1000-Watt lamps as necessary. The plants were employed for testing when they reached the first through fourth true leaf stage.
(§2) Treatments consisted of the acid or esters of 4-amino-3-chloro-5-fluoro-6-(4-chloro-2-fluoro-3-methoxy-phenyl)pyridine-2-carboxylic acid (compound A) each formulated as an SC and various herbicidal components alone and in combination. Forms of compound A were applied on an acid equivalent basis.
(§3) Other herbicidal components were applied on an active ingredient basis and included acetolactate synthase (ALS)-inhibiting herbicides (sulfonylurea chemical class), azimsulfuron formulated as Gulliver®, bensulfuron-methyl formulated as Londax® 60DF, cyclosulfamuron (technical grade materail), ethoxysulfuron formulated as Sunrice® 15 WDG, flucetosulfuron formulated as Sukedachi® 1KG G, imazosulfuron formulated as Brazzos®, metsulfuron-methyl formulated as Lorate®, nicosulfuron formulated as Accent®, orthosulfamuron formulated as Strada® WG, propyrisulfuron formulated as Zeta One®, and rimsulfuron formulated as Matrix® WG.
(§4) Treatment requirements for each compound or herbicidal component were calculated based upon the rates being tested, the concentration of active ingredient or acid equivalent in the formulation, an application volume of 2 mL per component per pot, and an application area of 86.59 cm^2 per pot.
(§5) For formulated compounds, a measured amount was placed in an individual 100 or 200 mL glass vial and was dissolved in a volume of 1.25% (v/v) Agri-Dex® crop oil concentrate to obtain application solutions.
(§6) For technical grade compounds, a weighed amount was placed in an individual 100 to 200 mL glass vial and was dissolved in a volume of acetone to obtain concentrated stock solutions. […] The concentrated stock solutions obtained were diluted with an equivalent volume of an aqueous mixture containing 2.5% (v/v) crop oil concentrate so that the final application solutions contained 1.25% (v/v) crop oil concentrate.
(§7) Applications were made by injecting with a pipetter appropriate amounts of the application solutions, individually and sequentially, into the aqueous layer of the paddy. Control plants were treated in the same manner with the solvent blank. Applications were made so that all treated plant material received the same concentrations of acetone and crop oil concentrate. […]

[2] = tested on: SCPMA (Bolboschoenus maritimus or Schoenoplectus maritimus, sea clubrush); assay: as above; assay type: in vivo, Bolboschoenus maritimus (L.) Palla
Procedure: as §1, §2, §3, §4, §5, §6, §7

[3] = tested on: BRAPP (Brachiaria platyphylla, broadleaf signalgrass); assay: Postemergence foliar-applied weed control, direct seeded rice, greenhouse (Example I); assay type: in vivo, Brachiaria platyphylla (Griseb.) Nash; conditions: Urochloa platyphylla, post-emergence, 480 h, 20 DAA, read-out: Visual Weed Control (%) Obs
Excerpt: (§8) Seeds or nutlets of the desired test plant species were planted in a soil matrix prepared by mixing a loam or sandy loam soil (e.g., 28.6 percent silt, 18.8 percent clay, and 52.6 percent sand, with a pH of about 5.8 and an organic matter content of about 1.8 percent) and calcareous grit in an 80 to 20 ratio. The soil matrix was contained in plastic pots with a volume of 1 quart and a surface area of 83.6 square centimeters (cm^2). When required to ensure good germination and healthy plants, a fungicide treatment and/or other chemical or physical treatment was applied. The plants were grown for 8-22 days in a greenhouse with an approximate 14 h photoperiod which was maintained at about 29° C. during the day and 26° C. during the night. Nutrients (Peters Excel® 15-5-15 5-Ca 2-Mg and iron chelate) were applied in the irrigation solution as needed and water was added on a regular basis. Supplemental lighting was provided with overhead metal halide 1000-Watt lamps as necessary. The plants were employed for testing when they reached the first through fourth true leaf stage.
(§9) Treatments consisted of the acid or esters of 4-amino-3-chloro-5-fluoro-6-(4-chloro-2-fluoro-3-methoxy-phenyl)pyridine-2-carboxylic acid (Compound A), each formulated as an SC, and various herbicidal components alone and in combination. Forms of compound A were applied on an acid equivalent basis.
(§10) Other herbicidal components were applied on an active ingredient basis and included acetolactate synthase (ALS)-inhibiting herbicides (sulfonylurea chemical class) azimsulfuron formulated as Gulliver®, bensulfuron-methyl formulated as Londax® 60DF, cyclosulfamuron (technical material), ethoxysulfuron formulated as Sunrice® 15 WDG, flazasulfuron formulated as Katana®, flucetosulfuron formulated as Sukedachi® 1KG G, foramsulfuron formulated as Option®, imazosulfuron formulated as Brazzos® WG, iodosulfuron-methyl-sodium formulated as Hussar®, metsulfuron-methyl formulated as Lorate®, nicosulfuron formulated as Accent®, orthosulfamuron formulated as Strada® WG, primisulfuron-methyl (technical material), propyrisulfuron formulated as Zeta One®, rimsulfuron formulated as Matrix® WG, sulfometuron-methyl formulated as Oust®, and trifloxysulfuron-sodium formulated as Monument® 75WG.
(§11) Treatment requirements were calculated based upon the rates being tested, the concentration of active ingredient or acid equivalent in the formulation, and a 12 mL application volume at a rate of 187 L/ha.
(§12) For treatments comprised of formulated compounds, measured amounts of compounds were placed individually in 25 mL glass vials and diluted in a volume of 1.25% (v/v) Agri-Dex® crop oil concentrated to obtain 12× stock solutions. […] Application solutions were prepared by adding an appropriate amount of each stock solution (e.g., 1 mL) and diluted to the appropriate final concentrations with the addition of 10 mL of an aqueous mixture of 1.25% (v/v) crop oil concentrate so that the final spray solutions contained 1.25+/−0.05% (v/v) Agrcrop oil concentrate.
(§13) For treatments comprised of formulated and technical compounds, weighed amounts of the technical materials were placed individually in 25 mL glass vials and dissolved in a volume of 97:3 v/v acetone/DMSO to obtain 12× stock solutions, and measured amounts of the formulated compounds were placed individually in 25 mL glass vials and diluted in a volume of 1.25% (v/v) crop oil concentrate to obtain 12× stock solutions. […] Application solutions were prepared by adding an appropriate amount of each stock solution (e.g., 1 mL) and diluted to the appropriate final concentrations with the addition of an appropriate amount of an aqueous mixture of 1.5% (v/v) crop oil concentrate so that the final spray solutions contained 1.25% (v/v) crop oil concentrate. […]

[4] = tested on: LEFCH (Leptochloa chinensis, Chinese sprangletop); assay: as above; assay type: in vivo, Leptochloa chinensis (L.) Nees; conditions: Dinebra chinensis, post-emergence
Excerpt: as §8, §9, §10, §11, §12, §13

[5] = tested on: CYPIR (Cyperus iria, rice flatsedge); assay: as above; assay type: in vivo, Cyperus iria L.; conditions: 22 DAA; 12.5 gai/ha
Excerpt: as §8, §9, §10, §11, §12, §13

[6] = tested on: DIGSA (Digitaria sanguinalis, large crabgrass); assay: as above; assay type: in vivo, Digitaria sanguinalis (L.) Scop.
Excerpt: as §8, §9, §10, §11, §12, §13

[7] = Table 28, second set, 25 gai/ha alone

COc1cc(OC)nc(NC(=O)NS(=O)(=O)c2c(-c3nnn(C)n3)cnn2C)n1 [Azimsulfuron, N-[[(4,6-dimethoxy-2-pyrimidinyl)amino]carbonyl]-1-methyl-4-(2-methyl-2H-tetrazol-5-yl)-1H-pyrazole-5-sulfonamide, reference compound]
Visual Weed Control (%) - 20 DAA ECHOR Obs ([1]; Table 28, 2.5 gai/ha alone): 0%
Visual Weed Control (%) - 20 DAA ECHOR Obs [1, 7]: 60%
Visual Weed Control (%) - 20 DAA ECHOR Obs ([1]; Table 29, 2.5 gai/ha alone): 0%
Visual Weed Control (%) - 20 DAA ECHOR Obs ([1]; Table 29, 5 gai/ha alone): 20%
Visual Weed Control (%) - 20 DAA ECHOR Obs ([1]; Table 29, 25 gai/ha alone): 60%
Visual Weed Control (%) - 20 DAA ECHOR Obs ([1]; Table 30, 25 gai/ha alone): 60%
Visual Weed Control (%) - 20 DAA SCPMA Obs ([2]; Table 28, 2.5 gai/ha alone): 70%
Visual Weed Control (%) - 20 DAA SCPMA Obs [2, 7]: 85%
Visual Weed Control (%) - 20 DAA SCPMA Obs ([2]; Table 29, 2.5 gai/ha alone): 70%
Visual Weed Control (%) - 20 DAA SCPMA Obs ([2]; Table 29, 25 gai/ha alone): 85%
pest or weed control at 3.125 g/ha ([3]; 3.125 gai/ha): 0%
pest or weed control at 6.25 g/ha ([3]; 6.25 gai/ha): 0%
pest or weed control at 12.5 g/ha ([3]; 12.5 gai/ha): 60%
pest or weed control at 3.125 g/ha ([4]; 480 h, 20 DAA, 3.125 gai/ha, read-out: Visual Weed Control (%) Obs): 0%
pest or weed control at 6.25 g/ha ([4]; 480 h, 20 DAA, 6.25 gai/ha, read-out: Visual Weed Control (%) Obs): 0%

COc1cc(OC)nc(NC(=O)NS(=O)(=O)Nc2ccccc2C(=O)C2CC2)n1 [Cyclosulfamuron, N-[[[2-(cyclopropylcarbonyl)phenyl]amino]sulfonyl]-N′-(4,6-dimethoxy-2-pyrimidinyl)urea, reference compound]
Visual Weed Control (%) Obs [5]: 95%
Visual Weed Control (%) - 21 DAA SCPMA Obs ([2]; Table 33, 12.5 gai/ha alone): 75%

COC(=O)c1ccccc1S(=O)(=O)NC(=O)Nc1nc(OC(F)F)cc(OC(F)F)n1 [Primisulfuron-methyl, methyl 2-[[[[[4,6-bis(difluoromethoxy)-2-pyrimidinyl]amino]carbonyl]amino]sulfonyl]benzoate]
pest or weed control at 15 g/ha ([4]; 504 h, read-out: Visual Weed Control (%) Obs, 21 DAA, 15 gai/ha): 40%
pest or weed control at 30 g/ha ([4]; 504 h, read-out: Visual Weed Control (%) Obs, 21 DAA, 30 gai/ha): 60%

COc1cc(OC)nc(NC(=O)[N-]S(=O)(=O)c2ncccc2OCC(F)(F)F)n1.[Na+] [Trifloxysulfuron-sodium]
Visual Weed Control (%) - 21 DAA DIGSA Obs ([6]; Table 27, foliar-applied, 24 gai/ha alone): 65%

COc1cc(OC)nc(NC(=O)NS(=O)(=O)c2cc(NC=O)ccc2C(=O)N(C)C)n1 [Foramsulfuron, 2-[[[[(4,6-dimethoxy-2-pyrimidinyl)amino]carbonyl]amino]sulfonyl]-4-(formylamino)-N,N-dimethylbenzamide]
pest or weed control at 20 g/ha ([4]; 504 h, 21 DAA, 20 gai/ha, read-out: Visual Weed Control (%) Obs): 0%
pest or weed control at 40 g/ha ([4]; 504 h, 21 DAA, 40 gai/ha, read-out: Visual Weed Control (%) Obs): 25%

COC(=O)c1ccccc1S(=O)(=O)NC(=O)Nc1nc(C)cc(C)n1 [Sulfometuron-methyl, methyl 2-[[[[(4,6-dimethyl-2-pyrimidinyl)amino]carbonyl]amino]sulfonyl]benzoate, reference compound]
Visual Weed Control (%) Obs ([6]; 22 DAA, 35 gai/ha): 85%
